Measured values: patent publication US20250092065A1, “2-(INDAZOL-5-YL)-6-(PIPERIDIN-4-YL)-1,7-NAPHTHYRIDINE DERIVATIVES AND RELATED COMPOUNDS AS MODULATORS FOR SPLICING NUCLEIC ACIDS AND FOR THE TREATMENT OF PROLIFERATIVE DISEASES” (REMIX THERAPEUTICS INC., priority 2022, published 2025)
pIC50: −log10 of the molar value. Read-outs that look alike come from different tables or passages of the source.

Experiments:
HTT mRNA = test: RT-qPCR splicing assay, HTT mRNA canonical (CJ) and alternative (AJ) junction; format: cell-based, human; conditions: Homo sapiens; for AC50: HTT alternative junction mRNA increase, read-out: HTT AJ (increase in alternative junction mRNA, AC50)
Procedure, shortened: (§1)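 Canonical and alternative-exon junction isoforms were quantified by RT-qPCR in cell lysates, with ΔCt against a housekeeper (GAPDH/GUSB/PPIA), then ΔΔCt vs DMSO, converted to 2^(−ΔΔCt) and percent response. K562 or A673 cells were exposed for 24 h to 11 concentrations (3-fold, top final 10 uM).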

MYB mRNA = test: RT-qPCR splicing assay, MYB mRNA canonical (CJ) and alternative (AJ) junction; format: cell-based, human; conditions: Homo sapiens; for AC50: MYB alternative junction mRNA increase, read-out: MYB AJ (increase in alternative junction mRNA, AC50)
Procedure, shortened: as §1

Target C = test: RT-qPCR canonical junction panel assay, Target C mRNA; format: cell-based; conditions: Table 4, read-out: Target C IC50 (decrease in CJ mRNA levels)
Protocol: Compounds described herein were used to modulate RNA transcript abundance in cells. The expression of a target mRNA was measured by detecting the formation of an exon-exon junction in the canonical transcript (CJ). A compound mediated exon-inclusion event was detected by observing an increase in formation of a new junction with an alternative exon (AJ). Real-time qPCR assays were used to detect these splicing switches and interrogate the potency of various compounds towards different target genes. A high-throughput real time quantitative PCR (RT-qPCR) assay was developed to measure these two isoforms of the mRNA (CJ and AJ) for exemplary genes, such as HTT, SMN2, and MYB, together with a control housekeeping gene, GAPDH or GUSB or PPIA, used for normalization. Briefly, the A673 or K562 cell line was treated with various compounds described herein (e.g., compounds of Formula (I)). After treatment, the levels of the HTT, MYB, or SMN2 mRNA targets were determined from each sample of cell lysate by cDNA synthesis followed by qPCR.
The data analysis was performed by first determining the ΔCt vs the housekeeper gene. This ΔCt was then normalized against the DMSO control (ΔΔCt) and converted to RQ (relative quantification) using the 2^(−ΔΔCt) equation. The RQ were then converted to a percentage response by arbitrarily setting an assay window of 3.5 and 4.0 ΔCt for HTT-CJ and MYB-CJ respectively and an assay window of 9 and 3 ΔCt for HTT-AJ and MYB-AJ in 96 well format (50,000 K562 cells/well and 15,000 A673 cells per well) and an assay window of 3 and 4 ΔCt for HTT-CJ and MYB-CJ respectively and an assay window of 5 and 3 ΔCt for HTT-AJ and MYB-AJ respectively in 384 well format (8,000 K562 cells/well example). […] The percentage response was then fitted to the 4 parametric logistic equation to evaluate the concentration dependence of compound treatment. The increase in AJ mRNA is reported as AC50 (compound concentration having 50% response in AJ increase) while the decrease in CJ mRNA levels is reported as IC50 (compound concentration having […] in CJ decrease).
Additional studies were carried out for a larger panel of genes using the protocol provided above. The junction between flanking upstream and downstream exons was used to design canonical junction Qpcr assays. At least one of the forward primer, reverse primer or the CY5-labeled 5′ nuclease probe (with 3′ quencher such as ZEN/Iowa Black FQ) was designed to overlap with the exon junction to capture the CJ Mrna transcript. BLAST was used to confirm the specificity of the probeset and parameters suCH As melting temperature, GC content, amplicon size, and primer dimer formation are considered during their design. Data for the decrease in CJ Mrna levels for four exemplary genes (HTT, SMN2, MYB, and Target C) analyzed in this panel are reported as IC50 (compound concentration having […] in CJ decrease).

K562 cells = test: Cell Titer Glo 2.0 cell viability (toxicity) assay, K562; conditions: 500 cells/well, 72 hours
SMN2 mRNA = test: RT-qPCR splicing assay, SMN2 mRNA; format: cell-based, human; conditions: Homo sapiens, canonical junction qPCR panel, Table 4; read-out: SMN2 IC50 (decrease in CJ mRNA levels)
Procedure, shortened: as §1

[1] = RT-qPCR, HTT canonical junction mRNA decrease, read-out: HTT CJ (decrease in canonical junction mRNA, IC50)
[2] = canonical junction qPCR panel, Table 4, read-out: HTT IC50 (decrease in CJ mRNA levels)
[3] = RT-qPCR, MYB canonical junction mRNA decrease, read-out: MYB CJ (decrease in canonical junction mRNA, IC50)
[4] = canonical junction qPCR panel, Table 4, read-out: MYB IC50 (decrease in CJ mRNA levels)

pIC50 (HTT mRNA; [1]) | pIC50 (HTT mRNA; [2]) | pIC50 (MYB mRNA; [3]) | pIC50 (MYB mRNA; [4]) | pIC50 (Target C) | pIC50 (SMN2 mRNA) | SMILES | AC50 (HTT mRNA; RT-qPCR) [nM] | AC50 (MYB mRNA; RT-qPCR) [nM] | Effect of Exemplary Compounds on Cell Viability, K562 (K562 cells)
5.00 to 6.00 | 5.00 to 6.00 | > 7.00 | > 7.00 | < 5.00 | > 7.00 | Cc1c(O)c(-c2ncc3cc(N4C[C@@H](C)NC5(CC5)C4)ccc3n2)cc2cn(C)nc12 (single isomer, unassigned) [Compound 811] | 1000 to 10000 | < 100 | B (B represents 100-1000 nM)
5.00 to 6.00 | 5.00 to 6.00 | 6.00 to 7.00 | 6.00 to 7.00 | 5.00 to 6.00 | > 7.00 | C[C@H]1CN(c2ccc3nc(-c4cc5cn(C)nc5cc4O)ncc3c2)CC2(CC2)N1 (single isomer, unassigned) [Compound 812] | 1000 to 10000 | 100 to 1000 | B (B represents 100-1000 nM)
< 5.00 | < 5.00 | 6.00 to 7.00 | 6.00 to 7.00 | < 5.00 | > 7.00 | C[C@@H]1CN(c2ccc3nc(-c4cc5cn(C)nc5cc4O)ncc3c2)CC2(CC2)N1 (single isomer, unassigned) [Compound 813] | > 10000 | 100 to 1000 | B (B represents 100-1000 nM)
6.00 to 7.00 | 6.00 to 7.00 | 6.00 to 7.00 | 6.00 to 7.00 | < 5.00 | > 7.00 | Cc1cn2cc(-c3ncc4cc(N5C[C@H](C)NC6(CC6)C5)ccc4n3)cc(F)c2n1 (single isomer, unassigned) [Compound 814] | 1000 to 10000 | 100 to 1000 | B (B represents 100-1000 nM)
5.00 to 6.00 | 5.00 to 6.00 | 6.00 to 7.00 | 6.00 to 7.00 | < 5.00 | > 7.00 | Cc1cn2cc(-c3ncc4cc(N5C[C@@H](C)NC6(CC6)C5)ccc4n3)cc(F)c2n1 (single isomer, unassigned) [Compound 815] | 1000 to 10000 | 100 to 1000 | B (B represents 100-1000 nM)
5.00 to 6.00 | 5.00 to 6.00 | 6.00 to 7.00 | 6.00 to 7.00 | 5.00 to 6.00 | > 7.00 | C[C@@H]1CN(c2ccc3nc(-c4cc(F)c5nn(C)cc5c4)ncc3c2)C[C@H](C)N1 [Compound 780, 6-[(3R,5S)-3,5-dimethylpiperazin-1-yl]-2-(7-fluoro-2-methylindazol-5-yl)quinazoline] | 1000 to 10000 | 100 to 1000 | B (B represents 100-1000 nM)
5.00 to 6.00 | 5.00 to 6.00 | 6.00 to 7.00 | 6.00 to 7.00 | < 5.00 | > 7.00 | Cc1nc(-c2cc3cn(C)nc3cc2O)nc2ccc(N3C[C@@H](C)N[C@@H](C)C3)cc12 [Compound 782, 5-(6-((3S,5R)-3,5-dimethylpiperazin-1-yl)-4-methylquinazolin-2-yl)-2-methyl-2H-indazol-6-ol 2,2,2-trifluoroacetate] | > 10000 | 100 to 1000 | B (B represents 100-1000 nM)
5.00 to 6.00 | 5.00 to 6.00 | > 7.00 | > 7.00 | 5.00 to 6.00 | > 7.00 | C[C@@H]1CN(c2ccc3nc(-c4cc5cn(C)nc5cc4O)nc(C(N)=O)c3c2)C[C@H](C)N1 [Compound 785, 6-((3R,5S)-3,5-dimethylpiperazin-1-yl)-2-(6-hydroxy-2-methyl-2H-indazol-5-yl)quinazoline-4-carboxamide 2,2,2-trifluoroacetate] | > 10000 | 100 to 1000 | A (A represents <100 nM)
6.00 to 7.00 | 6.00 to 7.00 | 6.00 to 7.00 | 6.00 to 7.00 | 6.00 to 7.00 | > 7.00 | Cc1c(O)c(-c2ncc3cc(N4CCC(N5CCC5)CC4)ccc3n2)cc2cn(C)nc12 [Compound 786, 5-{6-[4-(azetidin-1-yl)piperidin-1-yl]quinazolin-2-yl}-2,7-dimethylindazol-6-ol] | 100 to 1000 | 100 to 1000 | B (B represents 100-1000 nM)

The next lines start with the molecule.

SMILES | pIC50 (HTT mRNA; [1]) | pIC50 (HTT mRNA; [2]) | pIC50 (MYB mRNA; [3]) | pIC50 (MYB mRNA; [4]) | pIC50 (Target C) | pIC50 (SMN2 mRNA) | AC50 (HTT mRNA; RT-qPCR) [nM] | AC50 (MYB mRNA; RT-qPCR) [nM] | Effect of Exemplary Compounds on Cell Viability, K562 (K562 cells)
Cc1cn2cc(-c3ncc4cc(N5C[C@H](C)N[C@@H](C)C5)ccc4n3)cc(Cl)c2n1 (single isomer, unassigned) [Compound 818] | 6.00 to 7.00 | 6.00 to 7.00 | > 7.00 | > 7.00 | 5.00 to 6.00 | > 7.00 | 1000 to 10000 | < 100 | A (A represents <100 nM)
C[C@H]1CN(c2ccc3nc(-c4cc(F)c5nncn5c4)ncc3c2)C[C@H](C)N1 (single isomer, unassigned) [Compound 820] | < 5.00 | < 5.00 | 5.00 to 6.00 | 5.00 to 6.00 | < 5.00 | 6.00 to 7.00 | > 10000 | 1000 to 10000 | C (C represents 1000-9999 nM)
Cc1nc2c(F)cc(-c3ncc4cc(N5C[C@H](C)N[C@@H](C)C5)ccc4n3)cn2c1F (single isomer, unassigned) [Compound 822] | 5.00 to 6.00 | 5.00 to 6.00 | 6.00 to 7.00 | 6.00 to 7.00 | 5.00 to 6.00 | 6.00 to 7.00 | > 10000 | 1000 to 10000 | B (B represents 100-1000 nM)
Cc1nc(-c2cc(F)c3nn(C)cc3c2)nc2ccc(N3C[C@@H](C)N[C@@H](C)C3)cc12 [Compound 781, 6-[(3R,5S)-3,5-dimethylpiperazin-1-yl]-2-(7-fluoro-2-methylindazol-5-yl)-4-methylquinazoline] | < 5.00 | < 5.00 | 5.00 to 6.00 | 5.00 to 6.00 | < 5.00 | 6.00 to 7.00 | > 10000 | 1000 to 10000 | C (C represents 1000-9999 nM)
Cc1nc(-c2cc3cn(C)nc3c(C)c2O)nc2ccc(N3C[C@@H](C)N[C@@H](C)C3)cc12 [Compound 783, 5-{6-[(3R,5S)-3,5-dimethylpiperazin-1-yl]-4-methylquinazolin-2-yl}-2,7-dimethylindazol-6-ol] | < 5.00 | < 5.00 | 6.00 to 7.00 | 6.00 to 7.00 | < 5.00 | > 7.00 | > 10000 | 100 to 1000 | B (B represents 100-1000 nM)
Cc1c(O)c(-c2nc(C(N)=O)c3cc(N4C[C@@H](C)N[C@@H](C)C4)ccc3n2)cc2cn(C)nc12 [Compound 784, 6-[(3R,5S)-3,5-dimethylpiperazin-1-yl]-2-(6-hydroxy-2,7-dimethylindazol-5-yl)quinazoline-4-carboxamide] | 5.00 to 6.00 | 5.00 to 6.00 | > 7.00 | > 7.00 | < 5.00 | > 7.00 | > 10000 | < 100 | A (A represents <100 nM)
